Source: US12679843B2, “Pyrrolopyrimidine amines as complement inhibitors” (BioCryst Pharmaceuticals, Inc., priority 2020, dated 2026)

molecular target: Factor D (Homo sapiens, UniProt P00746); assay: Factor D esterolytic assay (Z-Lys-SBzl thioester substrate, DTNB, 405 nm); format: biochemical; conditions: substrate Z-Lys-SBzl 1.29 mM, 100 mM HEPES, 500 mM NaCl, pH 7.5, 10% DMSO, tested a minimum of three times
Summary of the method: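 Human Factor D hydrolysis of Z-Lys-SBzl (1.29 mM) monitored at 405 nm via DTNB thiol detection for 600 s, 690 nm background subtracted. Buffer 100 mM HEPES, 500 mM NaCl, pH 7.5, 10% DMSO; substrate added immediately or after room-temperature preincubation. IC50 from percent inhibition of rate, at least three tests.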

Chain of Factor D (P00746 26-253): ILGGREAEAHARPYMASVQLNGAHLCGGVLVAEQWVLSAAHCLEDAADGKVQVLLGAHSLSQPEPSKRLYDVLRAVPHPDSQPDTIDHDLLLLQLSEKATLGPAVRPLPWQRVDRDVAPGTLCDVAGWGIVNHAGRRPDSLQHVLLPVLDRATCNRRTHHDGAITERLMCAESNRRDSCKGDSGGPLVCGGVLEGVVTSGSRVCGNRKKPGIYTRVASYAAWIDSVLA

SMILES	IC50 [nM]
Nc1ncnc2c1c(-c1ccccc1Cl)cn2CC(=O)N1C[C@H](F)C[C@H]1C(=O)NCc1cccc(Cl)c1F [Compound 136a, (2S,4R)-1-(2-(4-amino-5-(2-chlorophenyl)-7H-pyrrolo[2,3-d]pyrimidin-7-yl)acetyl)-N-(3-chloro-2-fluorobenzyl)-4-fluoropyrrolidine-2-carboxamide]	> 1000
Nc1ncnc2c1c(-c1ccc3cc[nH]c3c1)cn2CC(=O)N1C[C@H](F)C[C@H]1C(=O)NCc1cccc(Cl)c1F [Compound 137b, (2S,4R)-1-(2-(4-amino-5-(1H-indol-6-yl)-7H-pyrrolo[2,3-d]pyrimidin-7-yl)acetyl)-N-(3-chloro-2-fluorobenzyl)-4-fluoropyrrolidine-2-carboxamide]	< 100
Nc1ncnc2c(CC(=O)N3C[C@H](F)C[C@H]3C(=O)NCc3cccc(Cl)c3F)cccc12 [Compound 138d, (2S,4R)-1-(2-(4-aminoquinazolin-8-yl)acetyl)-N-(3-chloro-2-fluorobenzyl)-4-fluoropyrrolidine-2-carboxamide]	100 to 1000
Nc1ncnc2c1c(-c1ccc3[nH]ccc3c1)cn2CC(=O)N1C[C@H](F)C[C@H]1C(=O)NCc1cccc(Cl)c1F [Compound 139b, (2S,4R)-1-(2-(4-amino-5-(1H-indol-5-yl)-7H-pyrrolo[2,3-d]pyrimidin-7-yl)acetyl)-N-(3-chloro-2-fluorobenzyl)-4-fluoropyrrolidine-2-carboxamide]	< 100
NCc1cn(CC(=O)N2C[C@H](F)C[C@H]2C(=O)NCc2cccc(Cl)c2F)c2ncnc(N)c12 [Compound 141a, (2S,4R)-1-(2-(4-amino-5-(aminomethyl)-7H-pyrrolo[2,3-d]pyrimidin-7-yl)acetyl)-N-(3-chloro-2-fluorobenzyl)-4-fluoropyrrolidine-2-carboxamide]	> 1000
Cc1nc(N)c2cnn(CC(=O)N3C[C@H](F)C[C@H]3C(=O)NCc3cccc(Cl)c3F)c2n1 [Compound 142d, (2S,4R)-1-(2-(4-amino-6-methyl-1H-pyrazolo[3,4-d]pyrimidin-1-yl)acetyl)-N-(3-chloro-2-fluorobenzyl)-4-fluoropyrrolidine-2-carboxamide]	> 1000
Nc1ncnc2c1c(-c1ccoc1)cn2CC(=O)N1C[C@H](F)C[C@H]1C(=O)NCc1cccc(Cl)c1F [Compound 143d, (2S,4R)-1-(2-(4-amino-5-(furan-3-yl)-7H-pyrrolo[2,3-d]pyrimidin-7-yl)acetyl)-N-(3-chloro-2-fluorobenzyl)-4-fluoropyrrolidine-2-carboxamide]	100 to 1000
Nc1ncnc2c1c(-c1ccc[nH]1)cn2CC(=O)N1C[C@H](F)C[C@H]1C(=O)NCc1cccc(Cl)c1F [Compound 149b, (2S,4R)-1-(2-(4-amino-5-(1H-pyrrol-2-yl)-7H-pyrrolo[2,3-d]pyrimidin-7-yl)acetyl)-N-(3-chloro-2-fluorobenzyl)-4-fluoropyrrolidine-2-carboxamide]	100 to 1000
Cc1nc2c(N)ncnc2n1CC(=O)N1C[C@H](F)C[C@H]1C(=O)NCc1cccc(Cl)c1F [Compound 152d, (2S,4R)-1-(2-(6-amino-8-methyl-9H-purin-9-yl)acetyl)-N-(3-chloro-2-fluorobenzyl)-4-fluoropyrrolidine-2-carboxamide]	100 to 1000

Results, then the compound that gave them:

IC50 [nM]	SMILES
> 1000	NC(=O)c1cn(CC(=O)N2C[C@H](F)C[C@H]2C(=O)NCc2cccc(Cl)c2F)c2ncnc(N)c12 [Compound 140a, 4-amino-7-(2-((2S,4R)-2-((3-chloro-2-fluorobenzyl)carbamoyl)-4-fluoropyrrolidin-1-yl)-2-oxoethyl)-7H-pyrrolo[2,3-d]pyrimidine-5-carboxamide]
100 to 1000	NC(=O)c1cnc2c(ccn2CC(=O)N2C[C@H](F)C[C@H]2C(=O)NCc2cccc(Cl)c2F)c1N [Compound 144g, 4-amino-1-(2-((2S,4R)-2-((3-chloro-2-fluorobenzyl)carbamoyl)-4-fluoropyrrolidin-1-yl)-2-oxoethyl)-1H-pyrrolo[2,3-b]pyridine-5-carboxamide]
100 to 1000	O=C(NCc1cccc(Cl)c1F)[C@@H]1C[C@@H](F)CN1C(=O)Cn1ccc2c3[nH]c(=O)[nH]c(=O)c3cnc21 [Compound 145a, (2S,4R)—N-(3-chloro-2-fluorobenzyl)-1-(2-(2,4dioxo-3,4dihydro-1H-pyrrolo[3′,2′:5,6]pyrido[4,3-d]pyrimidin-7 (2H)-yl)acetyl)-4-fluoropyrrolidine-2-carboxamide]
> 1000	COC(=O)c1cn(CC(=O)N2C[C@H](F)C[C@H]2C(=O)NCc2cccc(Cl)c2F)c2ncnc(N)c12 [Compound 146a, methyl 4-amino-7-(2-((2S,4R)-2-((3-chloro-2-fluorobenzyl)carbamoyl)-4-fluoropyrrolidin-1-yl)-2-oxoethyl)-7H-pyrrolo[2,3-d]pyrimidine-5-carboxylate]
> 1000	COC(=O)c1cnc2c(ccn2CC(=O)N2C[C@H](F)C[C@H]2C(=O)NCc2cccc(Cl)c2F)c1N [Compound 147a, methyl 4-amino-1-(2-((2S,4R)-2-((3-chloro-2-fluorobenzyl)carbamoyl)-4-fluoropyrrolidin-1-yl)-2-oxoethyl)-1H-pyrrolo[2,3-b]pyridine-5-carboxylate]
100 to 1000	Nc1ncnc2c1c(I)cn2CC(=O)N1C[C@H](F)C[C@H]1C(=O)NCc1cccc(Cl)c1F [Compound 148d, (2S,4R)-1-(2-(4-amino-5-iodo-7H-pyrrolo[2,3-d]pyrimidin-7-yl)acetyl)-N-(3-chloro-2-fluorobenzyl)-4-fluoropyrrolidine-2-carboxamide]
100 to 1000	Cc1cn(CC(=O)N2C[C@H](F)C[C@H]2C(=O)NCc2cccc(Cl)c2F)c2ncnc(N)c12 [Compound 150d, (2S,4R)-1-(2-(4-amino-5-methyl-7H-pyrrolo[2,3-d]pyrimidin-7-yl)acetyl)-N-(3-chloro-2-fluorobenzyl)-4-fluoropyrrolidine-2-carboxamide]
100 to 1000	Nc1c(C(=O)O)cnc2c1ccn2CC(=O)N1C[C@H](F)C[C@H]1C(=O)NCc1cccc(Cl)c1F [Compound 151a, 4-amino-1-(2-((2S,4R)-2-((3-chloro-2-fluorobenzyl)carbamoyl)-4-fluoropyrrolidin-1-yl)-2-oxoethyl)-1H-pyrrolo[2,3-b]pyridine-5-carboxylic acid]
> 1000	Nc1ncnc2c1c(C(=O)O)cn2CC(=O)N1C[C@H](F)C[C@H]1C(=O)NCc1cccc(Cl)c1F [Compound 153a, 4-amino-7-(2-((2S,4R)-2-((3-chloro-2-fluorobenzyl)carbamoyl)-4-fluoropyrrolidin-1-yl)-2-oxoethyl)-7H-pyrrolo[2,3-d]pyrimidine-5-carboxylic acid]
100 to 1000	CSc1cn(CC(=O)N2[C@@H]3C[C@@H]3C[C@H]2C(=O)Nc2cccc(Br)n2)c2ncnc(N)c12 [Compound 154e, (1R,3S,5R)-2-(2-(4-amino-5-(methylthio)-7H-pyrrolo[2,3-d]pyrimidin-7-yl)acetyl)-N-(6-bromopyridin-2-yl)-2-azabicyclo[3.1.0]hexane-3-carboxamide]
> 1000	Nc1c(C(=O)O)cnc2c1ccn2CC(=O)N1[C@@H]2C[C@@H]2C[C@H]1C(=O)Nc1cccc(Br)n1 [Compound 155f, 4-amino-1-(2-((1R,3S,5R)-3-((6-bromopyridin-2-yl)carbamoyl)-2-azabicyclo[3.1.0]hexan-2-yl)-2-oxoethyl)-1H-pyrrolo[2,3-b]pyridine-5-carboxylic acid]
